Test results as given in ChEMBL document CHEMBL3885881, “DrugMatrix”.

Species: Rattus norvegicus
Test: DrugMatrix - Regimen: Daily Repeat
Assay type: toxicity, organism-based, Sprague-Dawley
Design: regimen Daily Repeat, gender Male, age 6-8 weeks
Conditions: in vivo, po, route oral GAVAGE, vehicle 100 % WATER; for ABSOLUTE BASOPHIL / ABSOLUTE EOSINOPHIL / ABSOLUTE LYMPHOCYTE / ABSOLUTE MONOCYTE / ABSOLUTE SEGMENTED NEUTROPHIL / BASOPHIL / EOSINOPHIL / ERYTHROCYTE COUNT / HEMATOCRIT / HEMOGLOBIN / LEUKOCYTE COUNT / LYMPHOCYTE / MEAN CORPUSCULAR HEMOGLOBIN / MEAN CORPUSCULAR HEMOGLOBIN CONCENTRATION / MEAN CORPUSCULAR VOLUME / MONOCYTE / NEUTROPHIL / NUCLEATED RED BLOOD CELLS / PLATELET COUNT: tissue Blood; for ALANINE AMINOTRANSFERASE / ALBUMIN / ALKALINE PHOSPHATASE / ASPARTATE AMINOTRANSFERASE / BLOOD UREA NITROGEN / CARBON DIOXIDE / CHLORIDE / CHOLESTEROL / CREATINE PHOSPHOKINASE / CREATININE / GLUCOSE / LACTATE DEHYDROGENASE / LIPASE / PHOSPHORUS / POTASSIUM / SODIUM / TOTAL BILIRUBIN / TOTAL PROTEIN / URIC ACID: tissue Plasma
[1] = 11 mg/kg, 120 h, dose level Low, time 5 day
[2] = 1100 mg/kg, 72 h, dose level High, time 3 day
[3] = 1100 mg/kg, 120 h, dose level High, time 5 day

CNS(=O)(=O)Cc1ccc2[nH]cc(CCN(C)C)c2c1
ABSOLUTE BASOPHIL [1]: 0 CELLS/uL
ABSOLUTE EOSINOPHIL [1]: 33.33 CELLS/uL
ABSOLUTE LYMPHOCYTE [1]: 13548.33 CELLS/uL
ABSOLUTE MONOCYTE [1]: 177 CELLS/uL
ABSOLUTE SEGMENTED NEUTROPHIL [1]: 608 CELLS/uL
BASOPHIL [1]: 0%
EOSINOPHIL [1]: 0.33%
ERYTHROCYTE COUNT [1]: 5.94 x10E6/uL
HEMATOCRIT [1]: 38.1%
HEMOGLOBIN [1]: 14.67 G/DL
LEUKOCYTE COUNT [1]: 14.37 x10E3/uL
LYMPHOCYTE [1]: 94%
MEAN CORPUSCULAR HEMOGLOBIN [1]: 24.67 pg
MEAN CORPUSCULAR HEMOGLOBIN CONCENTRATION [1]: 38.53 G/DL
MEAN CORPUSCULAR VOLUME [1]: 64.03 fL
MONOCYTE [1]: 1.33%
NEUTROPHIL [1]: 4.33%
NUCLEATED RED BLOOD CELLS [1]: 0 /100WBC
PLATELET COUNT [1]: 1140 x10E3/uL
ALANINE AMINOTRANSFERASE [1]: 51 u/L
ALBUMIN [1]: 4.23 G/DL
ALKALINE PHOSPHATASE [1]: 398.33 u/L
ASPARTATE AMINOTRANSFERASE [1]: 85.33 u/L
BLOOD UREA NITROGEN [1]: 15.67 mg/dL
CARBON DIOXIDE [1]: 31.67 mmol/L
CHLORIDE [1]: 101.67 MEQ/L
CHOLESTEROL [1]: 66 mg/dL
CREATINE PHOSPHOKINASE [1]: 235 u/L
CREATININE [1]: 0.17 mg/dL
GLUCOSE [1]: 139.67 mg/dL
LACTATE DEHYDROGENASE [1]: 145 u/L
LIPASE [1]: 10.33 u/L
PHOSPHORUS [1]: 11.03 mg/dL
POTASSIUM [1]: 6.19 MEQ/L
SODIUM [1]: 146.47 MEQ/L
TOTAL BILIRUBIN [1]: 0.17 mg/dL
TOTAL PROTEIN [1]: 6.37 G/DL
URIC ACID [1]: 0.83 mg/dL
ABSOLUTE BASOPHIL [2]: 0 CELLS/uL
ABSOLUTE EOSINOPHIL [2]: 0 CELLS/uL
ABSOLUTE LYMPHOCYTE [2]: 8603 CELLS/uL
ABSOLUTE MONOCYTE [2]: 74.33 CELLS/uL
ABSOLUTE SEGMENTED NEUTROPHIL [2]: 922.67 CELLS/uL
BASOPHIL [2]: 0%
EOSINOPHIL [2]: 0%
ERYTHROCYTE COUNT [2]: 5.83 x10E6/uL
HEMATOCRIT [2]: 35.8%
HEMOGLOBIN [2]: 13.87 G/DL
LEUKOCYTE COUNT [2]: 9.6 x10E3/uL
LYMPHOCYTE [2]: 89.67%
MEAN CORPUSCULAR HEMOGLOBIN [2]: 23.8 pg
MEAN CORPUSCULAR HEMOGLOBIN CONCENTRATION [2]: 38.73 G/DL
MEAN CORPUSCULAR VOLUME [2]: 61.43 fL
MONOCYTE [2]: 0.67%
NEUTROPHIL [2]: 9.67%
NUCLEATED RED BLOOD CELLS [2]: 0 /100WBC
PLATELET COUNT [2]: 1087.33 x10E3/uL
ALANINE AMINOTRANSFERASE [2]: 50.33 u/L
ALBUMIN [2]: 4.07 G/DL
ALKALINE PHOSPHATASE [2]: 367.67 u/L
ASPARTATE AMINOTRANSFERASE [2]: 86 u/L
BLOOD UREA NITROGEN [2]: 12.67 mg/dL
CARBON DIOXIDE [2]: 30 mmol/L
CHLORIDE [2]: 101.67 MEQ/L
CHOLESTEROL [2]: 70.33 mg/dL
CREATINE PHOSPHOKINASE [2]: 362.67 u/L
CREATININE [2]: 0.2 mg/dL
GLUCOSE [2]: 136.67 mg/dL
LACTATE DEHYDROGENASE [2]: 189.67 u/L
LIPASE [2]: 10.33 u/L
PHOSPHORUS [2]: 10.73 mg/dL
POTASSIUM [2]: 5.86 MEQ/L
SODIUM [2]: 145.13 MEQ/L
TOTAL BILIRUBIN [2]: 0.13 mg/dL
TOTAL PROTEIN [2]: 6.13 G/DL
URIC ACID [2]: 0.7 mg/dL
ABSOLUTE BASOPHIL [3]: 0 CELLS/uL
ABSOLUTE EOSINOPHIL [3]: 40.67 CELLS/uL
ABSOLUTE LYMPHOCYTE [3]: 8480 CELLS/uL
ABSOLUTE MONOCYTE [3]: 117.33 CELLS/uL
ABSOLUTE SEGMENTED NEUTROPHIL [3]: 862 CELLS/uL
BASOPHIL [3]: 0%
EOSINOPHIL [3]: 0.33%
ERYTHROCYTE COUNT [3]: 5.92 x10E6/uL
HEMATOCRIT [3]: 37.33%
HEMOGLOBIN [3]: 14.3 G/DL
LEUKOCYTE COUNT [3]: 9.5 x10E3/uL
LYMPHOCYTE [3]: 89.67%
MEAN CORPUSCULAR HEMOGLOBIN [3]: 24.2 pg
MEAN CORPUSCULAR HEMOGLOBIN CONCENTRATION [3]: 38.27 G/DL
MEAN CORPUSCULAR VOLUME [3]: 63.17 fL
MONOCYTE [3]: 1%
NEUTROPHIL [3]: 9%
NUCLEATED RED BLOOD CELLS [3]: 0 /100WBC
PLATELET COUNT [3]: 1190.33 x10E3/uL
ALANINE AMINOTRANSFERASE [3]: 47.67 u/L
ALBUMIN [3]: 4.07 G/DL
ALKALINE PHOSPHATASE [3]: 329 u/L
ASPARTATE AMINOTRANSFERASE [3]: 87.67 u/L
BLOOD UREA NITROGEN [3]: 15.67 mg/dL
CARBON DIOXIDE [3]: 31 mmol/L
CHLORIDE [3]: 100 MEQ/L
CHOLESTEROL [3]: 65.67 mg/dL
CREATINE PHOSPHOKINASE [3]: 337 u/L
CREATININE [3]: 0.17 mg/dL
GLUCOSE [3]: 135.33 mg/dL
LACTATE DEHYDROGENASE [3]: 119.67 u/L
LIPASE [3]: 10.33 u/L
PHOSPHORUS [3]: 9.67 mg/dL
POTASSIUM [3]: 6.24 MEQ/L
SODIUM [3]: 145.07 MEQ/L
TOTAL BILIRUBIN [3]: 0.2 mg/dL
TOTAL PROTEIN [3]: 6.2 G/DL
URIC ACID [3]: 0.83 mg/dL
